Laboratory results taken from PMC5987406, “Antioxidant, anticholinesterase and antifatigue effects of Trichilia catigua (catuaba)” (BMC Complementary and Alternative Medicine, 2018).

Columns and labels:
mice = experiment: Classical fear conditioning, scopolamine-induced amnesia; assay type: in vivo; settings: scopolamine 2 mg/kg i.p., not statistically significant
Procedure: Male albino Swiss mice (30-50 g) and male Wistar rats (300-450 g), 3–4 months old, from our vivarium (Department of Psychobiology, UNIFESP) were housed in rooms with 12 h light-dark circle, controlled temperature (21 ± 2 °C), with filtered tap water and food (Nuvilab, Brazil) ad libitum, except during the experiments. The animals were kept in polypropylene cages (4–5 animals each) with pine shavings as bedding material. […] The animals were euthanized in CO2 chamber or by decapitation (in the case of stress by immobilization test). The protocols followed the International Guiding Principles for Biomedical Research Involving Animals and were approved by UNIFESP ethics committee (Comissão de Ética no Uso de Animais, from Universidade Federal de São Paulo, São Paulo, Brazil) - protocol #0752/07.
On the training day, the animals (except the negative control group) received scopolamine (2 mg/kg, i.p. - Sigma, St. Louis, MO, USA) in 0.9% saline 30 min after the extract treatment and 30 min later were placed individually in the context cage dotted with some visual cues. After 2 min of habituation, three electrical shocks (0.3 mA, 1 s duration and interval of 10s) were delivered to the paws of the animal (adapted from Soeiro et al.). […]

[1] = DPPH assay (radical scavenging); settings: 95% confidence interval in parenthesis; linear regression, mean of 3–4 assays
Procedure: The test was based on the protocol of Duarte-Almeida et al. [25], with some modifications. An ethanolic solution of 2,2-diphenyl-1-picryl hydrazyl (DPPH) (Sigma, St. Louis, MO, USA) was prepared in order to produce an absorbance between 0.8 and 0.99 at 517 nm. One hundred microliters of each extract diluted in ethanol (Synth, Diadema, Brazil) at initial concentrations of 0.004, 0.01, 0.04, 0.1, 0.4 and 1.0 mg/mL were pipetted in a cuvette and after the addition of 900 μL of DPPH the cuvette was placed in a spectrophotometer (PG Instruments LTD, Leicestershire, United Kingdom) and read during 2 min at 517 nm. Ethanol (vehicle) was used as control and rutin (Acros Organics, New Jersey, USA) as positive control. The percentage of DPPH scavenger (S) was calculated by the formula: SDPPH = [(Ac - As)/Ac] × 100, where Ac = absorbance for the control and As = absorbance for the sample.
The statistical analysis was carried out using the Statistica® and Graph Pad Prism® software. The EC50 for DPPH and IC50 for acetylcholinesterase were calculated by linear regression using the mean of scavenge or inhibition for each concentration of the tested drugs. […] We adopted a p value of 0.05 as statistically significant.

SMILES | Reduction of freezing time compared with control mice that did not receive scopolamine (mice) | DPPH scavenging EC50 [1]
CN1[C@@H]2C[C@@H](OC(=O)[C@H](CO)c3ccccc3)C[C@H]1[C@@H]1O[C@@H]12 [scopolamine] | 40.9% | –
C[C@@H]1O[C@@H](OC[C@H]2O[C@@H](Oc3c(-c4ccc(O)c(O)c4)oc4cc(O)cc(O)c4c3=O)[C@H](O)[C@@H](O)[C@@H]2O)[C@H](O)[C@H](O)[C@H]1O [Rutin, rutin] | – | 44 (9–216) μg/mL
